Test results as given in patent US6630157B1, “Therapeutic and dietary compositions containing essential fatty acids and bioactive disulphides” (Viatris GmbH & Co. KG., priority 1997, dated 2003).
“Also recorded” adds a separate entry of the source.

Tests used:
plasma phospholipids = test: fatty acid levels in plasma phospholipids of rats fed GLA, EPA or DHA with or without anti-oxidant; type: in vivo, rat; conditions: fatty acid (GLA, EPA or DHA) 0.1% by weight in food plus 0.1% by weight anti-oxidant, two weeks, preliminary experiments
Protocol: (§1) In an effort to explore the effect further, we have performed preliminary experiments on rats on the effects of the administration of either GLA, EPA or DHA with or without the so anti-oxidants vitamin E, vitamin C or TA. Each fatty acid was added to the food at 0.1% by weight for a period of two weeks. The diet also contained either no other added material (control) or 0.1% by weight of vitamin E, vitamin C or TA. After two weeks the animals were killed and the levels of the fatty acids or their immediate metabolites determined in plasma phospholipids and in red cell membrane phospholipids. […] We can therefore conclude that there is no effect of anti-oxidants per se on the metabolism of the GLA, EPA or DHA in this situation. Equally, there were no effects of TA on the plasma phospholipid fatty acid composition. In contrast, in each of the groups the concentrations of the relevant fatty acids in red cell phospholipids were increased by 10-20%.

[1] = tested on: red cell membrane phospholipids; test: fatty acid levels in red cell membrane phospholipids of rats fed GLA, EPA or DHA with or without anti-oxidant; type: in vivo, rat; conditions: two weeks; for effect on levels of the fatty acids or their immediate metabolites in red cell membrane phospholipids: fatty acid (GLA, EPA or DHA) 0.1% by weight in food plus 0.1% by weight anti-oxidant, preliminary experiments
Protocol: as §1

[2] = tested on: atopic eczema, breast pain, rheumatoid arthritis and cardiovascular disease; test: clinical studies of GLA with co-administration of vitamin E; type: in vivo, human
Description: (§2) The results with EFA's and their synergistic effects with TA were completely unexpected and we decided to investigate them further. Vitamin E, like TA, is a lipophilic antioxidant and is one which is generally regarded as being physiologically more important than TA.

animals with diabetes = test: vitamin E administered together with GLA in animals with diabetes; type: in vivo
Description: as §2

[3] = tested on: sciatic nerve of rats made diabetic by streptozotocin; test: sciatic nerve blood flow by microelectrode polarography hydrogen clearance in streptozotocin diabetic rats; type: in vivo, rat; conditions: STZ diabetic Sprague Dawley rats; GLA approx. 20 mg/kg/daily in food, TA 20 mg/kg/day intraperitoneal; 2 weeks treatment starting 6 weeks after STZ
Description: (§3) Initial experimental evidence was obtained by studying rats made diabetic by the administration of streptozotocin. In such animal, complications resembling human complications of diabetes develop, and are characterised by reduction in conduction velocity to of impulses along the sciatic nerve and reduction in blood flow to the sciatic nerve. The reduction in blood flow is particularly important and is likely to be relevant to many complications of diabetes including retinopathy, nephropathy macrovascular arterial disease of the heart and peripheral arteries, impotence and leg ulceration. It may also be relevant to many of the other conditions in which essential fatty acids are useful treatments, including the inflammatory disorders. Five groups of animals given streptozotocin (STZ) were tested. They were accepted into the study only if they developed unequivocal elevation of blood glucose after the STZ. Ten animals acted as normal controls. […] The animals were left for 6 weeks after the STZ to allow the nerve damage to develop and were then given treatment with nothing or with GLA or TA or both together for 2 weeks At the end of the two weeks, the animals were anaesthetised and the motor nerve conduction velocity measured in the perineal branch of the sciatic nerve. Sciatic nerve blood flow was also measured by microelectrode polarography hydrogen clearance

[4] = tested on: perineal branch of the sciatic nerve of rats made diabetic by streptozotocin; test: motor nerve conduction velocity in streptozotocin diabetic rats; type: in vivo, rat; conditions: STZ diabetic Sprague Dawley rats; GLA approx. 20 mg/kg/daily in food, TA 20 mg/kg/day intraperitoneal; 2 weeks treatment starting 6 weeks after STZ
Description: as §3

nerve conduction = conditions: TA alone; Packer et al, pages 570-572; cited from earlier work

Row | Molecule | effect on levels of the fatty acids or their immediate metabolites in plasma phospholipids (plasma phospholipids) | effect on levels of the fatty acids or their immediate metabolites in red cell membrane phospholipids [1] | enhancement of the effects of GLA in clinical studies [2] | enhancement of the effect of GLA (animals with diabetes) | total nerve blood flow [3] | motor nerve conduction velocity [4] | increase of concentrations of the relevant fatty acids in red cell phospholipids ([1]; GLA, EPA or DHA 0.1% by weight in food plus 0.1% by weight TA, versus control without TA) | effect on nerve conduction (nerve conduction)
1 | vitamin E | Neither vitamin E nor vitamin C had any effects | Neither vitamin E nor vitamin C had any effects | not enhanced | no enhancement at all |  |  |  | 
2 | O=C(O)CCCCC1CCSS1 (stereo not drawn) [TA, α-lipoic acid] | no effects |  |  |  | little effect alone; also recorded: small improvements | little effect alone; also recorded: small improvements | 10-20% | absence of effect
3 | CCCCC/C=C\C/C=C\C/C=C\CCCCC(=O)O [GLA, Gamma-linolenic acid] |  |  |  |  | little effect alone; also recorded: small improvements | little effect alone; also recorded: small improvements |  | 
4 | O=C1O[C@H]([C@@H](O)CO)C(O)=C1O [vitamin C] | Neither vitamin E nor vitamin C had any effects | Neither vitamin E nor vitamin C had any effects |  |  |  |  |  | 
